From patent publication US8853373B2, “Method and reagent for gene sequence analysis” (Hitachi, Ltd., priority 2009, dated 2014)

Experiments:
Assay type in all cases: biochemical
DNA Sequence S2 = assay: Sequence analysis by stepwise chemical reaction (pyrogram), PPDK system, Condition 4; conditions: DNA Sequence S2 (3 consecutive nucleotides)
Experimental: Therefore, a sequence having 3 consecutive nucleotides of T was analyzed for comparison. Analyzed DNA Sequence S2 and a primer P3 are described below.
Of note is that Sequence P3 represents a primer sequence. This primer can complementarily bind to the underlined portion of the above DNA Sequence S2. FIGS. 16 to 20 show the results of a sequence analysis. In addition, the reagent conditions were listed together in the following Table 3.
In this experiment, an enzyme system which converts PPi into ATP has employed an enzyme system in which PPi and AMP are converted into ATP by PPDK as described in the conventional technique (Patent Literature 4). The items of the figure are identical to those of FIG. 15. At the bottom of the respective figures, the injected nucleotide types are designated. At the top, the nucleotide types which have been incorporated into a complementary DNA sequence of analysis object are designated. The substrate was injected in the order of “bases A, T, C, and G”, and 7 cycles were analyzed. As indicated in the target sequence, in this analysis, two regions (Cycle 4 and Cycle 7) having 3 consecutive nucleotides of A incorporated are present. Because of this, a difference in the ability of continuous incorporation of a nucleic acid substrate that is used as a nucleotide A can be assessed. Hereinafter, the details are described.
First, three kinds of the substrates (A3d, dATPαS, and C^7dATP) having the final concentration of 2 μM were used. The results of a sequence analysis will be described (FIGS. 16 to 20). […] At the time of dispensing A (surrounded by the circle ◯) which represented the injected nucleotide type, A3d was used. […] Accordingly, as the signal corresponding to A at the first cycle indicated, background luminescence was observed. Due to this phenomenon, the luminescence signal corresponding to nucleotide A constantly included the increased background luminescence. The symbol • in the figure denotes elongation luminescence corresponding to a nucleotide sequence of a sample. In contrast, the major luminescence without corresponding to the nucleotide sequence is represented by the symbol ∇. […] At the time of dispensing A (surrounded by the circle ◯) which represented the injected nucleotide type, dATPαS was used. The resulting pyrogram and the nucleotide sequence of a sample were compared. The symbol • in the figure denotes elongation luminescence corresponding to a nucleotide sequence of a sample. In contrast, the major luminescence without corresponding to the nucleotide sequence is represented by the symbol ∇. […] At the time of dispensing A (surrounded by the circle ◯) which represented the injected nucleotide type, C^7dATP was used. […] Accordingly, as the signal corresponding to A at the first cycle indicated, big background luminescence was observed. Due to this phenomenon, the luminescence signal corresponding to nucleotide A constantly included the increased background luminescence. The symbol x in the figure denotes just a background luminescence signal. The symbol • denotes elongation luminescence corresponding to a nucleotide sequence of a sample. However, the symbol (•) denotes inclusion of both elongation-derived luminescence and background luminescence. In contrast, the major luminescence without corresponding to the nucleotide sequence is represented by the symbol ∇.

[1] = system: nucleotides G, C, and A (Sequence GA, Sequence CG, Sequence AG); assay: Exclusivity of the other nucleotides (G, C, and A), elongation luminescence; conditions: CG, AG, luminescence normalized to dCTP, dGTP, dTTP as 1
Experimental: (§1) Incorporation into nucleic acid was evaluated as follows. First, one of the above sequences was used as a target. Next, the primer was made to complementarily bind to the target. Then, an elongation experiment was carried out using the respective nucleic acid substrates for that sample. The synthesized nucleic acid substrate requires an affinity (complementary characteristics) with nucleotide T, and exclusivity of the other nucleotides (G, C, and A). The affinity with nucleotide T was evaluated using the Sequence TG and the primer. The exclusivity of the other nucleotides (G, C, and A) was evaluated using the respective Sequence GA, Sequence CG, and Sequence AG, and the primer. In addition, Sequence 5T was used for the evaluation of an ability of continuous incorporation into nucleotide T.
(§2) A sequencing method using a stepwise chemical reaction is described below. First, 35 μL of ultrapure water, 5 μL of oligo DNA (10 μM) of analysis object (target), and 5 μL of a primer (20 μM) were mixed with 5 μL of a hybridization buffer (10 mM Tris-Acetate, 20 mM Mg-Acetate, pH 7.75) (a sample solution: the final volume was 50 μL). Then, the sample solution was heated at 94° C. for 20 seconds, and reacted at a Tm temperature of the primer for 2 minutes. After that, 0.5 μL, (target: […], primer: […]) of this sample solution, 20 of a luminescence reagent which is designated in Condition 2 of Table 1, and 0.2 μL of a polymerase enzyme (the final concentration: 0.05 U/4) were mixed to prepare a reaction reagent (the final volume was 20.7 μL). To this reaction reagent was added 0.4 μL of 100 μM nucleic acid substrate (the final concentration 2 μM). When nucleic acid elongation occurs, bioluminescence derived from pyrophosphate of the elongation reaction product can be observed. The reaction has a luminescence peak a few seconds after the reaction initiation. […] This luminescence peak value is virtually proportional to the amount of generated pyrophosphate. Measurement of the peak value enables a degree of nucleic acid elongation to be estimated.
Next, with regard to the respective synthetic substrates, the exclusivity of the other nucleotides (G, C, and A) was assessed using each of Sequence GA, Sequence CG, and Sequence AG and the primer. […] In addition, a background luminescence component of the respective substrates was compensated by taking its difference into account in a manner similar to that of the preceding figures.

[2] = system: 5 consecutive nucleotides of T (Sequence 5T); assay: Ability of incorporation into consecutive nucleotides of T (Sequence 5T), three consecutive injections; conditions: for Continuous incorporation into 5 consecutive T (luminescence derived from incomplete elongation): three injections
Experimental: as §1, §2
Next, by using Sequence 5T, the ability of incorporation of the respective synthetic substrates into consecutive nucleotides of T was evaluated by the following procedure. The reaction reagent was prepared by using Sequence 5T as a target oligo in the same manner as in the case of evaluation of elongation of one nucleotide as described before. In this case, a target oligo 111 and a primer 112 form a complementary strand binding as depicted in FIG. 11(1). Due to the above, when dATP is dispensed into this reaction reagent as a substrate, five molecules of the substrate are consecutively elongated per target molecule as a primer having the substrate at the 3′ end 113, thereby releasing five molecules of pyrophosphate. If the elongation for all the five nucleotides is not completed, a portion of the nucleotide T remains in a single-stranded state. Because of this, when substrate dATP is dispensed again, the portion is elongated only in the case where a portion of incomplete elongation remains. Therefore, the release of pyrophosphate can be detected as luminescence. […] In addition, substrate dCTP, which is complementary to nucleotide G 114, was subsequently dispensed twice to detect luminescence. […]

[3] = final concentration 2 μM, 7 cycles

Row | Structure (SMILES) | Sequence analysis result as substitute for dATP (DNA Sequence S2; [3]) | Exclusivity of the other nucleotides (G, C, and A) [1] | Sequence analysis result as substitute for dATP (DNA Sequence S2; final concentration 4 μM) | Rate of Incomplete Elongation after the First Injection (%) ([2]; 5 consecutive nucleotides, final concentration 4 μM, E1 = luminescence of 2nd and 3rd injections / total of 1st to 3rd) | Rate of Incomplete Elongation after the Second Injection (%) ([2]; 5 consecutive nucleotides, final concentration 4 μM, E2 = luminescence of 3rd injection / total of 1st to 3rd) | Continuous incorporation into 5 consecutive T (luminescence derived from incomplete elongation) ([2]; final concentration 2 μM, then dCTP) | Continuous incorporation into 5 consecutive T (luminescence derived from incomplete elongation) ([2]; final concentration 4 μM (substrate amount doubled))
1 | Nc1ncnc2c1c(/C=C/C(=O)NCCc1ccncc1)cn2[C@H]1CC(O)[C@@H](COP(=O)(O)OP(=O)(O)OP(=O)(O)O)O1 (some centres unmarked) [A3d] | up to the nucleotide G at Cycle 7, a sequence analysis was found to be able to be definitely carried out | excellent exclusivity | – | – | – | – | –
2 | Nc1ncnc2c1ncn2[C@H]1C[C@H](O)[C@@H](COP(O)(=S)OP(=O)(O)OP(=O)(O)O)O1 (some centres unmarked) [dATPαS] | incomplete elongation was able to be presumed to occur | – | the incomplete elongation is not completely resolved | 36.8 ± 7.8 | 13.6 ± 5.1 | luminescence derived from incomplete elongation was detected even at the third injection | luminescence derived from incomplete elongation was detected at the third injection
